According to patent publication US8911751B2, “Compositions for nasal delivery” (Yissum Research Development Company of the Hebrew …, priority 2005, dated 2014):

Test system: Female C57Bl/6 mice
Assay: Pentobarbitone-induced sleeping in mice (Example 34)
Format: in vivo
Conditions: oral Brotizolam 0.25 mg/kg, 5 minutes before sleep induction; compared to control

In the case of `Cc1nnc2n1-c1sc(Br)cc1C(c1ccccc1Cl)=NC2` [Oral Brotizolam, 8-bromo-6-(o-chlorophenyl)-1-methyl-4H-s-triazolo[3,4c]thieno[2,3e]1,4-diazepine], the “latency (onset of the loss of righting reflex)” value is reported as “no significant effect” and the “total sleeping time (TST)” value is reported as “no significant effect”.
